US11459315B2, “Modulators of methyl modifying enzymes, compositions and uses thereof” (Constellation Pharmaceuticals, Inc., priority 2017, dated 2022)
Like-named read-outs stand apart in the source and are kept apart here.

Assays:
[1] = test system: H3K27me3 mark in HeLa cells (EZH2); test: H3K27me3 Alpha Hela Assay (AlphaLISA); assay type: cell-based; details: HeLa cells, 72 hrs, read-out: EZH2 Cell H3K27me3 Alpha HeLa (EC50 K27me3)
Procedure, shortened: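 HeLa cells (1,000/well) treated with ten 3-fold compound doses for 72 h at 37 °C; lysates extracted and H3K27me3 detected by AlphaLISA with anti-K27me3 acceptor beads, biotinylated anti-H3 (3 nM) and streptavidin donor beads. EC50 from DMSO-normalized dose-response curves; duplicate plate assessed viability.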

[2] = biological target: PRC2 containing wt EZH2 (Homo sapiens (Human), UniProt Q15910); test: EZH2 biochemical assay (IC50), 3H-SAM incorporation into biotinylated H3 peptide
Procedure, shortened: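 The PRC2 pentamer with wt EZH2 (30 pM) was pre-incubated for 3-5 h with 450 nM SAM plus 450 nM ³H-SAM, 2 µM H3K27me3 activating peptide and compound (0.8% DMSO) in Tris at pH 8.5. Biotinylated H3K27me1 peptide was added and the reaction ran 18-22 h at RT. Incorporated ³H was captured on streptavidin plates, and IC50 was taken from a four-parameter fit.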

[3] = 30 pM PRC2 containing wt EZH2; 3-5 h pre-incubation; read-out: EZH2 (IC50)
[4] = EZH2 (IC50), 30 pM PRC2 containing wt EZH2; 3-5 h pre-incubation
[5] = read-out: EZH2 (IC50); 30 pM PRC2 containing wt EZH2; 3-5 h pre-incubation

Sequence of PRC2 containing wt EZH2 (Q15910 whole entry): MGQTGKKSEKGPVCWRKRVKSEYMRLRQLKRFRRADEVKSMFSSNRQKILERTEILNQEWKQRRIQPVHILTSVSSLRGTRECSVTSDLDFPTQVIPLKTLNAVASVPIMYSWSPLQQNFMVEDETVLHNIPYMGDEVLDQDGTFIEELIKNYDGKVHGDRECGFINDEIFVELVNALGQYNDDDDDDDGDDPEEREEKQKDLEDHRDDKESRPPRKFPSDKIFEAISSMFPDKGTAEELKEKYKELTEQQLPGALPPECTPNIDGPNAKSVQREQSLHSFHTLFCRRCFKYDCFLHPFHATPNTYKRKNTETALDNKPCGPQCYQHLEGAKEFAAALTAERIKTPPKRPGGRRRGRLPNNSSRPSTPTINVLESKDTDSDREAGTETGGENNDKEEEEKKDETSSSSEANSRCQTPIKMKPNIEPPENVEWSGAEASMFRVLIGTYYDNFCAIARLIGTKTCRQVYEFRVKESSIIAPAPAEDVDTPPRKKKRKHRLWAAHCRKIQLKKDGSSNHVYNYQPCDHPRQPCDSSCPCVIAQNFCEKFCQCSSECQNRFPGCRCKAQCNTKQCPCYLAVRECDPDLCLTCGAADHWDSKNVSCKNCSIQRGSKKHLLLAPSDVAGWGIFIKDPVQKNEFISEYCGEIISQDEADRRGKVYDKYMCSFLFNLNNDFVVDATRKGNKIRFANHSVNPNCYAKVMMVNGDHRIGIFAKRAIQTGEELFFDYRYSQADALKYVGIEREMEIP
Sequence of PRC2 containing wt EZH2 (O75530 whole entry partner): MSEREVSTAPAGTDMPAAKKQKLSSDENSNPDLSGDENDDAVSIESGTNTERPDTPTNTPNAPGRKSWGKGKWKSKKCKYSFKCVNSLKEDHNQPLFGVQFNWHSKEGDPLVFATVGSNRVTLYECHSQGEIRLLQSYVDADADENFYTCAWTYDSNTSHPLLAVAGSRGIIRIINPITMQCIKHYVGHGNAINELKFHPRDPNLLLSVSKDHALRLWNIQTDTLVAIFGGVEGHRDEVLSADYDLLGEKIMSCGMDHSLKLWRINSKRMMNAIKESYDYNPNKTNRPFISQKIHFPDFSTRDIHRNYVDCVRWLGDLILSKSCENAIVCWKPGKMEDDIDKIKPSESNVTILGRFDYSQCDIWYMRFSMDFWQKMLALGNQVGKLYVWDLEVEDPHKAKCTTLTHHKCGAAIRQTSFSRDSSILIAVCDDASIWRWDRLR
Sequence of PRC2 containing wt EZH2 (Q15022 whole entry partner): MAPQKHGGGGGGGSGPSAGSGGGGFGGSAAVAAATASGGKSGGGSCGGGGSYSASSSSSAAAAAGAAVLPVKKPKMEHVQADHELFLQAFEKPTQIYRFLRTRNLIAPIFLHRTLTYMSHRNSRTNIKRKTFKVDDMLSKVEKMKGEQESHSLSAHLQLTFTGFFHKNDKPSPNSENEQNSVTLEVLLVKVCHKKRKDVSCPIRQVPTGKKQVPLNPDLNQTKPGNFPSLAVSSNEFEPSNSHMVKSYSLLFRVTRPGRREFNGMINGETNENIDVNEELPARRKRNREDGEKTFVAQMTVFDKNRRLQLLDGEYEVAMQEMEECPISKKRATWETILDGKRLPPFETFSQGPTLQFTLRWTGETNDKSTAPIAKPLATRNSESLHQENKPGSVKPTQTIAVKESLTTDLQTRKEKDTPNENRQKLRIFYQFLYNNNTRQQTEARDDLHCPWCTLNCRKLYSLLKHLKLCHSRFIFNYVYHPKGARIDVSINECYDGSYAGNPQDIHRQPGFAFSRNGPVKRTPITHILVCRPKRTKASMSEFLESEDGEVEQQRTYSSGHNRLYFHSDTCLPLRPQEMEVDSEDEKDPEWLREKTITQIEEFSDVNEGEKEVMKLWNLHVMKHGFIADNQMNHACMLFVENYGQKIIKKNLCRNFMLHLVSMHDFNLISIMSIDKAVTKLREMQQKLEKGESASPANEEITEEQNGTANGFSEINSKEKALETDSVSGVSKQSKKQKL
Sequence of PRC2 containing wt EZH2 (Q09028 whole entry partner): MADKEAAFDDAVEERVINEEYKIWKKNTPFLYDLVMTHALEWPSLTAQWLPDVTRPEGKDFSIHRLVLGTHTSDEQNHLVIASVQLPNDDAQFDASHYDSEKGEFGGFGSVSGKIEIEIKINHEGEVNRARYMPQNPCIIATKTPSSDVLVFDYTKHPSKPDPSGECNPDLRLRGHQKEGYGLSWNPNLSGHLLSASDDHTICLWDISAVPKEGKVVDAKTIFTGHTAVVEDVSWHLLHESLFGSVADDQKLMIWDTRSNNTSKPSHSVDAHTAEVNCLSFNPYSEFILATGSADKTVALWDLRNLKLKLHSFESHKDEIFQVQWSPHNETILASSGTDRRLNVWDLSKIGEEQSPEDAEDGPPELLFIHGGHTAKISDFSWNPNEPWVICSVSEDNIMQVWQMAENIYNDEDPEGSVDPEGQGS
Sequence of PRC2 containing wt EZH2 (Q6ZN18 whole entry partner): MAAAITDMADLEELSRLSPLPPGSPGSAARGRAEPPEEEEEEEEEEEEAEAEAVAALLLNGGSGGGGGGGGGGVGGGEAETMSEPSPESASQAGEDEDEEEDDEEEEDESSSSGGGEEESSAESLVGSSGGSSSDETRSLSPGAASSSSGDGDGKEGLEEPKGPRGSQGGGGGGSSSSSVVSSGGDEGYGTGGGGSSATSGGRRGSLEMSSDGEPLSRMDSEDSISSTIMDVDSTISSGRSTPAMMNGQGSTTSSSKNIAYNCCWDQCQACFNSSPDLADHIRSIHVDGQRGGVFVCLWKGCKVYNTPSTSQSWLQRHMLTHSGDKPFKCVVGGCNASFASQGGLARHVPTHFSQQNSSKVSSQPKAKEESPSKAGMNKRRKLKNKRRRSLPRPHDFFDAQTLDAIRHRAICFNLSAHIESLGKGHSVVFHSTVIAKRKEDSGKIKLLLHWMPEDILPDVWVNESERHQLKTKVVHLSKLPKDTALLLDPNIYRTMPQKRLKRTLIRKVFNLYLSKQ

| SMILES | EC50 ([1]; Homo sapiens, HeLa, 72 h) [nM] | IC50 [2, 3] [nM] | IC50 [2, 4] [nM] | EC50 [1] [nM] | IC50 [2, 5] [nM] |
| --- | --- | --- | --- | --- | --- |
| CSc1cc(C)[nH]c(=O)c1CNC(=O)c1c(C)n([C@H](C)C2CCC(N3CC(O)(C(C)C)C3)CC2)c2ncccc12 (stereo partly drawn) [Example 158, 1-((R)-1-(4-(3-hydroxy-3-isopropylazetidin-1-yl)cyclohexyl)ethyl)-2-methyl-N-((6-methyl-4-(methylthio)-2-oxo-1,2-dihydropyridin-3-yl)methyl)-1H-pyrrolo[2,3-b]pyridine-3-carboxamide] | > 100 | < 0.5 | – | – | – |
| CSc1cc(C)[nH]c(=O)c1CNC(=O)c1c(C)n([C@H](C)C23CC(N(C)C4COC4)(C2)C3)c2ccccc12 [Example 9, (R)-2-methyl-1-(1-(3-(methyl(oxetan-3-yl)amino)bicyclo[1.1.1]pentan-1-yl)ethyl)-N-((6-methyl-4-(methylthio)-2-oxo-1,2-dihydropyridin-3-yl)methyl)-1H-indole-3-carboxamide] | < 10 | < 0.5 | – | – | – |
| CSc1cc(C)[nH]c(=O)c1CNC(=O)c1c(C)n([C@@H](C)c2cnc(C)nc2)c2ccccc12 [Example 34, (S)-2-methyl-N-((6-methyl-4-(methylthio)-2-oxo-1,2-dihydropyridin-3-yl)methyl)-1-(1-(2-methylpyrimidin-5-yl)ethyl)-1H-indole-3-carboxamide] | > 100 | > 5 | – | – | – |
| CSc1cc(C)[nH]c(=O)c1CNC(=O)c1c(C)n([C@H](C)C2CCN(CC(F)(F)F)CC2)c2cccc(Cl)c12 [Example 103, (R)-4-chloro-2-methyl-N-((6-methyl-4-(methylthio)-2-oxo-1,2-dihydropyridin-3-yl)methyl)-1-(1-(1-(2,2,2-trifluoroethyl)piperidin-4-yl)ethyl)-1H-indole-3-carboxamide] | < 10 | – | < 0.5 | – | – |
| CSc1cc(C)[nH]c(=O)c1CNC(=O)c1c(C)n([C@H](C)C2CCC(N3CC(OC(C)(C)C)C3)CC2)c2ncccc12 (single isomer, unassigned) [112 (isomer 1)] | < 10 | < 0.5 | – | – | – |
| CSc1cc(C)[nH]c(=O)c1CNC(=O)c1c(C)n([C@H](C)C2CCC(N(C)C3(C)COC3)CC2)c2ccccc12 (single isomer, unassigned) [3 (isomer 1)] | < 10 | < 0.5 | – | – | – |
| CSc1cc(C)[nH]c(=O)c1CNC(=O)c1c(C)n([C@H](C)C2CCC(O)CC2)c2cc(F)ccc12 (single isomer, unassigned) [44 (isomer 2)] | – | – | – | < 10 | < 0.5 |
| COC1CN(C2CCC([C@@H](C)n3c(C)c(C(=O)NCc4c(SC)cc(C)[nH]c4=O)c4cncnc43)CC2)C1 (stereo partly drawn) [Example 77, 7-((R)-1-(4-(3-methoxyazetidin-1-yl)cyclohexyl)ethyl)-6-methyl-N-((6-methyl-4-(methylthio)-2-oxo-1,2-dihydropyridin-3-yl)methyl)-7H-pyrrolo[2,3-d]pyrimidine-5-carboxamide] | 10 to 100 | – | < 0.5 | – | – |
| COC1CCC([C@@H](C)n2c(C)c(C(=O)NCc3c(SC)cc(C)[nH]c3=O)c3cncnc32)CC1 (single isomer, unassigned) [41 (isomer 2)] | – | – | – | < 10 | < 0.5 |
| CSc1cc(C)[nH]c(=O)c1CNC(=O)c1c(C)n([C@H](C)C2OCC(N(C)C)CO2)c2ccccc12 (single isomer, unassigned) [7 (isomer 2)] | – | < 0.5 | – | < 10 | – |
| CSc1cc(C)[nH]c(=O)c1CNC(=O)c1c(C)n([C@H](C)C2CCN(CC(F)(F)F)CC2)c2cccc(C)c12 [Example 87, (R)-2,4-dimethyl-N-((6-methyl-4-(methylthio)-2-oxo-1,2-dihydropyridin-3-yl)methyl)-1-(1-(1-(2,2,2-trifluoroethyl)piperidin-4-yl)ethyl)-1H-indole-3-carboxamide] | < 10 | – | 0.5 to 5 | – | – |
| CSc1cc(C)[nH]c(=O)c1CNC(=O)c1c(C)n([C@H](C)C2OCC(N3CC(C)(C)C3)CO2)c2ccccc12 (single isomer, unassigned) [78 (isomer 2)] | – | – | > 5 | > 100 | – |
| CSc1cc(C)[nH]c(=O)c1CNC(=O)c1c(C)n([C@H](C)C2CCC(NC3COC3)CC2)c2ccccc12 (single isomer, unassigned) [2 (isomer 1)] | < 10 | < 0.5 | – | – | – |
| CSc1cc(C)[nH]c(=O)c1CNC(=O)c1c(C)n([C@H](C)[C@H]2CCNC[C@@H]2F)c2ccccc12 [Example 37, 1-((R)-1-((3R,4R)-3-fluoropiperidin-4-yl)ethyl)-2-methyl-N-((6-methyl-4-(methylthio)-2-oxo-1,2-dihydropyridin-3-yl)methyl)-1H-indole-3-carboxamide] | 10 to 100 | – | < 0.5 | – | – |
| COC1CN(C2CCC([C@@H](C)n3c(C)c(C(=O)NCc4c(SCF)cc(C)[nH]c4=O)c4ccccc43)CC2)C1 (stereo partly drawn) [Example 93, N-((4-((fluoromethyl)thio)-6-methyl-2-oxo-1,2-dihydropyridin-3-yl)methyl)-1-((R)-1-(4-(3-methoxyazetidin-1-yl)cyclohexyl)ethyl)-2-methyl-1H-indole-3-carboxamide] | 10 to 100 | < 0.5 | – | – | – |
| CSc1cc(C)[nH]c(=O)c1CNC(=O)c1c(C)n([C@H](C)C2CCC(N3CC(OC4CC4)C3)CC2)c2ccccc12 (stereo partly drawn) [Example 100, 1-((R)-1-(4-(3-cyclopropoxyazetidin-1-yl)cyclohexyl)ethyl)-2-methyl-N-((6-methyl-4-(methylthio)-2-oxo-1,2-dihydropyridin-3-yl)methyl)-1H-indole-3-carboxamide] | < 10 | < 0.5 | – | – | – |
| CSc1cc(C)[nH]c(=O)c1CNC(=O)c1c(C)n([C@H](C)C2CCC(O)CC2)c2ncccc12 (single isomer, unassigned) [36 (isomer 2)] | – | – | – | < 10 | < 0.5 |
| CC[C@H](C1CCC(N2CC(OC(F)F)C2)CC1)n1c(C)c(C(=O)NCc2c(SC)cc(C)[nH]c2=O)c2cccnc21 (stereo partly drawn) [Example 118, 1-((R)-1-(4-(3-(difluoromethoxy)azetidin-1-yl)cyclohexyl)propyl)-2-methyl-N-((6-methyl-4-(methylthio)-2-oxo-1,2-dihydropyridin-3-yl)methyl)-1H-pyrrolo[2,3-b]pyridine-3-carboxamide] | < 10 | < 0.5 | – | – | – |
| CSc1cc(C)[nH]c(=O)c1CNC(=O)c1c(C)n([C@H](C)C2CCC(N3CC(S(C)(=O)=O)C3)CC2)c2ccccc12 (single isomer, unassigned) [162 (isomer 2)] | – | 0.5 to 5 | – | > 100 | – |
| CSc1cc(C)[nH]c(=O)c1CNC(=O)c1c(C)n([C@H](C)C2CCC(N3CC(OC(F)F)C3)CC2)c2c(F)cccc12 (single isomer, unassigned) [121 (isomer 1)] | – | < 0.5 | – | < 10 | – |
| COC1CC(N2CC[C@H]([C@@H](C)n3c(C)c(C(=O)NCc4c(SC)cc(C)[nH]c4=O)c4ccccc43)[C@H](F)C2)C1 (stereo partly drawn) [Example 153, 1-((R)-1-((3S,4R)-3-fluoro-1-(3-methoxycyclobutyl)piperidin-4-yl)ethyl)-2-methyl-N-((6-methyl-4-(methylthio)-2-oxo-1,2-dihydropyridin-3-yl)methyl)-1H-indole-3-carboxamide] | < 10 | < 0.5 | – | – | – |
| CSc1cc(C)[nH]c(=O)c1CNC(=O)c1c(C)n([C@H](C)C2CCN(C3CC3)CC2)c2ncccc12 [Example 26, (R)-1-(1-(1-cyclopropylpiperidin-4-yl)ethyl)-2-methyl-N-((6-methyl-4-(methylthio)-2-oxo-1,2-dihydropyridin-3-yl)methyl)-1H-pyrrolo[2,3-b]pyridine-3-carboxamide] | < 10 | – | < 0.5 | – | – |
| CSc1cc(C)[nH]c(=O)c1CNC(=O)c1c(C)n([C@H](C)C2CCC(O)CC2)c2ncccc12 (single isomer, unassigned) [36 (isomer 1)] | 10 to 100 | – | < 0.5 | – | – |
| CSc1cc(C)[nH]c(=O)c1CNC(=O)c1c(C)n([C@@H](C)[C@H]2OC[C@@H](N3CCC34COC4)CO2)c2ccccc12 (single isomer, unassigned; isomer 1) [151 (isomer 1)] | – | 0.5 to 5 | – | > 100 | – |
| CSc1cc(C)[nH]c(=O)c1CNC(=O)c1c(C)n([C@H](C)C2CCC(NC3COC3)CC2)c2ncncc12 (stereo partly drawn) [Example 63, 6-methyl-N-((6-methyl-4-(methylthio)-2-oxo-1,2-dihydropyridin-3-yl)methyl)-7-((R)-1-(4-(oxetan-3-ylamino)cyclohexyl)ethyl)-7H-pyrrolo[2,3-d]pyrimidine-5-carboxamide] | 10 to 100 | < 0.5 | – | – | – |
| Cc1cc(SC2CCC2)c(CNC(=O)c2c(C)n([C@H](C)C3CCN(CC(F)(F)F)CC3)c3ccccc23)c(=O)[nH]1 [Example 109, (R)-N-((4-(cyclobutylthio)-6-methyl-2-oxo-1,2-dihydropyridin-3-yl)methyl)-2-methyl-1-(1-(1-(2,2,2-trifluoroethyl)piperidin-4-yl)ethyl)-1H-indole-3-carboxamide] | 10 to 100 | < 0.5 | – | – | – |
| CSc1cc(C)[nH]c(=O)c1CNC(=O)c1c(C)n([C@H](C)C2CCC(N3CC(OC(C)(C)C)C3)CC2)c2ncccc12 (single isomer, unassigned) [112 (isomer 2)] | – | < 0.5 | – | 10 to 100 | – |
| CSc1cc(C)[nH]c(=O)c1CNC(=O)c1c(C)n([C@H](C)C2CCC(NC3(C(F)(F)F)COC3)CC2)c2ccccc12 (single isomer, unassigned) [Example 130] | < 10 | < 0.5 | – | – | – |
